The values that follow come from patent US11242335B2, “Fluorine-substituted indazole compounds and uses thereof” (SUNSHINE LAKE PHARMA CO., LTD., priority 2017, dated 2022).

In the assay the target is T1, soluble guanylate cyclase (sGC) expressed by CHO-K1-Rat sGC monoclonal cell line (Rattus norvegicus, UniProt P19686+P20595).
T1 construct: expressed in transfected cells; host or cells: CHO-K1
T1 sequence (P19686 1-690): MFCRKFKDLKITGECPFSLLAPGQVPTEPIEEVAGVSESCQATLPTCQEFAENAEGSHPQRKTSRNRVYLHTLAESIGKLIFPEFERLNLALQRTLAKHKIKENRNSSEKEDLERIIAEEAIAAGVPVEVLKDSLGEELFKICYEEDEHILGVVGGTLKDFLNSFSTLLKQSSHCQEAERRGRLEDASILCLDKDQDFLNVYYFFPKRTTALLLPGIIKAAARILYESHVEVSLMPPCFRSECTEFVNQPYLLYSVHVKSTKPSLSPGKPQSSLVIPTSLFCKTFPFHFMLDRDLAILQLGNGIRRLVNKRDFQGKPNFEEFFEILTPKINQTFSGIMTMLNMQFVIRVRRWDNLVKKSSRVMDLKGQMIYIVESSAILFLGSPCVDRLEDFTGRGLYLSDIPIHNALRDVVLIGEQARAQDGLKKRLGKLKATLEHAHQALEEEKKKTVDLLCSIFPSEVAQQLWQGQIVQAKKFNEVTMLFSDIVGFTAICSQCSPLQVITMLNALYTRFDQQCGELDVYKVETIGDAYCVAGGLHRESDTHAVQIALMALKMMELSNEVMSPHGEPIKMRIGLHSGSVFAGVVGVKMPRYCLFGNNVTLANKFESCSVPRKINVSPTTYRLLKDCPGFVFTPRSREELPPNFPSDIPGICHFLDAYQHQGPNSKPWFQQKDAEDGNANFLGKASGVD
T1 sequence (P20595 1-619): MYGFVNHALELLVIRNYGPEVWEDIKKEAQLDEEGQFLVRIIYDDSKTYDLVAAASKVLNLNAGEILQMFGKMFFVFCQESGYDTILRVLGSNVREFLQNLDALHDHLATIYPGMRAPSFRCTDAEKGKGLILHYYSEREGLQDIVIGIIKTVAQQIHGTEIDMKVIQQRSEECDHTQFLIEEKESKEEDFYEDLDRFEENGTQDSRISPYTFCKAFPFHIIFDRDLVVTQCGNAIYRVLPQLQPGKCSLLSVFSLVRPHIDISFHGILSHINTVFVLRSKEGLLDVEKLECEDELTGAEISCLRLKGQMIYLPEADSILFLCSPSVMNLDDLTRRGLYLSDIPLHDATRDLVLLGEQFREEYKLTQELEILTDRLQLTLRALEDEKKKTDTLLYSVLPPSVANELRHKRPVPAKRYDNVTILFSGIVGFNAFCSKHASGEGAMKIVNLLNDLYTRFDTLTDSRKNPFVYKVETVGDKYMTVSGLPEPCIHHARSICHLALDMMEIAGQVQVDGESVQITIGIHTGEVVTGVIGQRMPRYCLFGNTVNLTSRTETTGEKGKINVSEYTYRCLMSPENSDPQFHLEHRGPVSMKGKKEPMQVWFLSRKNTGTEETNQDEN
Kind of assay: Effect on recombinant guanylate cyclase reporter cell line (CHO-K1-Rat sGC, Cisbio cGMP HTRF). The class given is cell-based. The conditions noted are these: activating soluble guanylate cyclase. The text has this:
Transfection of Soluble Guanylate Cyclase (sGC) gene into CHO-K1 cells and selection of cells with stably and highly expressed sGC: Rat sGCα1 and Rat sGCβ1 Genes were synthesized, and then pcDNA3.1(+)-rat sGCα1 and pcDNA3.1/Hygro (+)-rat sGCβ1 plasmid were constructed; the plasmid was co-transfected into CHO-K1 cells, and a positive clone cell line stably expressing CHO-K1-Rat sGC was selected using the Cisbio cGMP HTRF assay kit.
The activity of the compound on the CHO-K1-Rat sGC monoclonal cell line was determined: The CHO-K1-Rat sGC monoclonal cell line was cultured, and used for test operation at degree of fusion of about 70% to 90%. The cells were resuspended in complete medium after TrypLE digestion; the cells were inoculated in a 384-well (low volume tissues culture treated) cell culture plate at a seeding density of 7500/well in 25 μL of complete medium and incubated at 37° C. in 5% CO2 atmosphere for 20 hours; the test compounds were dissolved and dilute with DMSO to give 10 concentration gradients (2× working concentration); 384-well cell culture plates were centrifugated (200 g) for 3 seconds by inversion at RT, medium was removed; The test compounds in each different concentration gradient and corresponding reagent were added into each cell well according to the detection process of Cisbio cGMP HTRF assay kit. The data were collected with Envision HTRF detector and the EC50 value of each compound in activating soluble guanylate cyclase was calculated.
In general terms: In TR-FRET formats the signal depends on donor and acceptor labels being close together.

`Nc1nc(-c2nn(Cc3ccccc3F)c3cc(F)ccc23)nc(N)c1NC1CCOC1` (stereo not shown) [Example 9, 2-(6-fluoro-1-(2-fluorobenzyl)-1H-indazol-3-yl)-N^5-(tetrahydrofuran-3-yl) pyrimidine-4,5,6-triamine]: the EC50 – broadly, the concentration giving half of the maximal effect – amounted to 680 nM.
As for `Nc1nc(-c2nn(Cc3ccccc3F)c3c(F)cccc23)nc(N)c1NC1CCOC1` (stereo not shown) [Example 12, 2-(7-fluoro-1-(2-fluorobenzyl)-1H-indazol-3-yl)-N^5-(tetrahydrofuran-3-yl)pyrimidine-4,5,6-triamine], the EC50 turned out to be 120 nM.
The result for `Nc1nc(-c2nn(Cc3ccccc3F)c3c(F)cccc23)nc(N)c1N1CCOCC1` [Example 14, 2-(7-fluoro-1-(2-fluorobenzyl)-1H-indazol-3-yl)-5-morpholinopyrimidine-4,6-diamine] reads 62 nM; that for `Nc1nc(-c2nn(Cc3ccccc3F)c3c(F)cccc23)nc(N)c1NC(=O)C1CCCO1` (stereo not shown) [Example 16, N-(4,6-diamino-2-(7-fluoro-1-(2-fluorobenzyl)-1H-indazol-3-yl)pyrimidin-5-yl)tetrahydrofuran-2-carboxamide], 690 nM; that for `Nc1nc(-c2nn(Cc3ccccc3F)c3c(F)cccc23)nc(N)c1NC(=O)C1CCCCO1` (stereo not shown) [Example 17, N-(4,6-diamino-2-(7-fluoro-1-(2-fluorobenzyl)-1H-indazol-3-yl)pyrimidin-5-yl)tetrahydro-2H-pyran-2-carboxamide], 420 nM.
Under `Oc1nc(-c2nn(Cc3ccccc3F)c3c(F)cccc23)ncc1F` [Example 25, 5-fluoro-2-(7-fluoro-1-(2-fluorobenzyl)-1H-indazol-3-yl)pyrimidin-4-ol] stands 860 nM; under `CC(C)(O)CNc1c(N)nc(-c2nn(Cc3ccccc3F)c3c(F)cccc23)nc1N` [Example 26, 1-((4,6-diamino-2-(7-fluoro-1-(2-fluorobenzyl)-1H-indazol-3-yl)pyrimidin-5-yl)amino)-2-methylpropan-2-ol], 100 nM; under `CC(Nc1c(N)nc(-c2nn(Cc3ccccc3F)c3c(F)cccc23)nc1N)C1CCOCC1` (stereo not shown) [Example 28, 2-(7-fluoro-1-(2-fluorobenzyl)-1H-indazol-3-yl)-N^5-(1-(tetrahydro-2H-pyran-4-yl)ethyl)pyrimidine-4,5,6-triamine], 94 nM.
Under `Nc1nc(-c2nn(Cc3ccccc3F)c3c(F)cccc23)ncc1C(=O)O` [Example 30, 4-amino-2-(7-fluoro-1-(2-fluorobenzyl)-1H-indazol-3-yl)pyrimidine-5-carboxylic acid] stands 820 nM; under `Nc1nc(-c2nn(Cc3ccccc3F)c3c(F)cccc23)ncc1C(=O)NC1CC1` [Example 31, 4-amino-N-cyclopropyl-2-(7-fluoro-1-(2-fluorobenzyl)-1H-indazol-3-yl) pyrimidine-5-carboxamide], 35 nM.
Turning to `CNC(=O)c1cnc(-c2nn(Cc3ccccc3F)c3c(F)cccc23)nc1N` [Example 32, 4-amino-2-(7-fluoro-1-(2-fluorobenzyl)-1H-indazol-3-yl)-N-methyl pyrimidine-5-carboxamide], the EC50 came to 89 nM.
The result for `COC(=O)N(C)c1c(N)nc(-c2nn(Cc3cncnc3)c3c(F)cccc23)nc1N` [Example 34, methyl (4,6-diamino-2-(7-fluoro-1-(pyrimidin-5-ylmethyl)-1H-indazol-3-yl)pyrimidin-5-yl)(methyl)carbamate] reads 810 nM; that for `Nc1nc(-c2nn(Cc3ccccc3F)c3c(F)cccc23)nc(N)c1C(=O)O` [Example 42, 4,6-diamino-2-(7-fluoro-1-(2-fluorobenzyl)-1H-indazol-3-yl)pyrimidine-5-carboxylic acid], 760 nM.
Under `Nc1nc(-c2nn(Cc3ccccc3F)c3c(F)cccc23)nc(N)c1C(=O)NC1CC1` [Example 44, 4,6-diamino-N-cyclopropyl-2-(7-fluoro-1-(2-fluorobenzyl)-1H-indazol-3-yl) pyrimidine-5-carboxamide] stands 340 nM; under `CN(C)C(=O)c1cnc(-c2nn(Cc3ccccc3F)c3c(F)cccc23)nc1N` [Example 45, 4-amino-2-(7-fluoro-1-(2-fluorobenzyl)-1H-indazol-3-yl)-N,N-dimethyl pyrimidine-5-carboxamide], 160 nM.
On to `Nc1nc(-c2nn(Cc3ccccc3F)c3c(F)cccc23)ncc1C(=O)N1CCOCC1` [Example 46, (4-amino-2-(7-fluoro-1-(2-fluorobenzyl)-1H-indazol-3-yl)pyrimidin-5-yl) (morpholino)methanone], for which the EC50 stood at 200 nM.
Under `Nc1nc(-c2nn(Cc3ccccc3F)c3c(F)cccc23)ncc1C(=O)N1CCCC1` [Example 47, (4-amino-2-(7-fluoro-1-(2-fluorobenzyl)-1H-indazol-3-yl)pyrimidin-5-yl) (pyrrolidin-1-yl)methanone] stands 120 nM.
With `Nc1nc(-c2nn(Cc3ccccc3F)c3c(F)cccc23)ncc1C(=O)NCCO` [Example 49, 4-amino-2-(7-fluoro-1-(2-fluorobenzyl)-1H-indazol-3-yl)-N-(2-hydroxyethyl)pyrimidine-5-carboxamide], the EC50 amounted to 270 nM.
Under `Nc1nc(-c2nn(Cc3ccccc3F)c3c(F)cccc23)ncc1C(=O)N1CCS(=O)(=O)CC1` [Example 51, (4-amino-2-(7-fluoro-1-(2-fluorobenzyl)-1H-indazol-3-yl)pyrimidin-5-yl) (1,1-dioxidothiomorpholino)methanone] stands 420 nM; under `Nc1nc(-c2nn(Cc3ccccc3F)c3c(F)cccc23)ncc1C(=O)N1CCC(F)(F)CC1` [Example 52, (4-amino-2-(7-fluoro-1-(2-fluorobenzyl)-1H-indazol-3-yl)pyrimidin-5-yl) (4,4-difluoropiperidin-1-yl)methanone], 110 nM; under `CN1CCN(C(=O)c2cnc(-c3nn(Cc4ccccc4F)c4c(F)cccc34)nc2N)CC1` [Example 53, (4-amino-2-(7-fluoro-1-(2-fluorobenzyl)-1H-indazol-3-yl)pyrimidin-5-yl) (4-methylpiperazin-1-yl)methanone], 390 nM.
The result for `Nc1nc(-c2nn(Cc3ccccc3F)c3c(F)cccc23)ncc1C(=O)N1CC(O)C1` [Example 54, (4-amino-2-(7-fluoro-1-(2-fluorobenzyl)-1H-indazol-3-yl)pyrimidin-5-yl) (3-hydroxyazetidin-1-yl)methanone] reads 140 nM.
The result for `CNC(=O)c1cnc(-c2nn(Cc3ccccc3F)c3c(F)cccc23)nc1` [Example 56, 2-(7-fluoro-1-(2-fluorobenzyl)-1H-indazol-3-yl)-N-methylpyrimidine-5-carboxamide] reads 340 nM; that for `O=C(NC1CC1)c1cnc(-c2nn(Cc3ccccc3F)c3c(F)cccc23)nc1` [Example 57, N-cyclopropyl-2-(7-fluoro-1-(2-fluorobenzyl)-1H-indazol-3-yl)pyrimidine-5-carboxamide], 79 nM; that for `OCCCNc1nc(-c2nn(Cc3ccccc3F)c3c(F)cccc23)ncc1F` [Example 59, 3-((5-fluoro-2-(7-fluoro-1-(2-fluorobenzyl)-1H-indazol-3-yl)pyrimidin-4-yl)amino)propan-1-ol], 58 nM.
